Data: patent US12201612B2, “Use of mavoglurant in the reduction of alcohol use or in preventing relapse into alcohol use” (NOVARTIS AG, priority 2017, dated 2025)
“Also recorded” adds a separate entry of the source.

Key:
[1] = tested on: mice; conditions: cited from earlier work
[2] = tested on: rats; conditions: cited from earlier work
[3] = tested on: monoamine oxidase; conditions: cited from earlier work
[4] = target: norepinephrine transporter (Homo sapiens, UniProt P23975); conditions: cited from earlier work
[5] = tested on: mice; conditions: cited from earlier work; remark: listed apart in the source
[6] = tested on: NMDA receptors; conditions: cited from earlier work
[7] = target: T1, cytochrome P450 1A2 (Homo sapiens, UniProt P05177); conditions: cited from earlier work
T1 sequence (P05177 1-516): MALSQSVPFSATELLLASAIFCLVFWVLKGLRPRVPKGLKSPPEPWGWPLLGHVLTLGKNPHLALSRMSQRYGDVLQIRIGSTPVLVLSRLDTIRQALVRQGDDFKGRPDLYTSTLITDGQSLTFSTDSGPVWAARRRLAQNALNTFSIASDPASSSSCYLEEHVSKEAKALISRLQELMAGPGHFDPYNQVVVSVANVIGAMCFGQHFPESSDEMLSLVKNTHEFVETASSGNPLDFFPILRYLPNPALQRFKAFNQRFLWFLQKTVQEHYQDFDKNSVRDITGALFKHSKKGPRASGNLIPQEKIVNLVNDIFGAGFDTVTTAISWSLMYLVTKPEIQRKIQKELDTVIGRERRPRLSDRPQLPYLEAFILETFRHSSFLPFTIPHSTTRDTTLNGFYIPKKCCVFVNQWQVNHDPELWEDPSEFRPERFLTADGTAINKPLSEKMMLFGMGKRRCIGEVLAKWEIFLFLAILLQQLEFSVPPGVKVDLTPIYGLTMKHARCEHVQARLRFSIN

[8] = tested on: Sprague-Dawley rats; test: Acute effects on cocaine intravenous self-administration (Phase I, FR5); type: in vivo, rat; conditions: sub-cohort I-b
Protocol: Adult male Sprague-Dawley rats (300-325 g at arrival) from Harlan Laboratory (Indiana, USA) were used. Upon arrival, the rats were assigned a unique identification numbers (tail marks). Animals were single housed in suspended polycarbonate rat cages with filter tops, and were acclimated for up to 7 days. All rats were examined, handled, and weighed prior to initiation of the study to assure adequate health and suitability. During the course of the study, 12 h/12 h light/dark cycles were maintained. The room temperature was 21-23° C. with a relative humidity maintained at 30-70%. Water was provided ad libitum for the duration of the study.
Cocaine Hydrochloride (Sigma-Aldrich, USA) (1.05 mg/ml which is equivalent to 0.3 mg/kg/infusion under 350 g body weight and 0.1 ml/infusion rate) was dissolved in saline (0.9% NaCl). The formulation was a clear solution.
Mavoglurant (free form) was formulated in 0.5% methylcellulose (MC) at 1, 3 and 10 mg/kg and administered orally at a dose volume of 1 ml/kg 60 minutes prior to test.
Intravenous drug self-administration took place in sound attenuated operant chambers equipped with an exhaust fan (Med Associates, VT). Each chamber contained two levers situated on one wall of the chamber. Only one of the two levers was active (located on the left side). Pressing the active lever caused delivery of reinforcer (food or cocaine). […]

[9] = tested on: Sprague-Dawley rats; test: Cue-induced reinstatement of the cocaine self-administration response (Phase II); type: in vivo, rat; conditions: 10 mg/kg PO, 1 hour prior to test; after 9-day extinction
Protocol: The methods for food training, catheter surgery, flushing and infusion confirmation were the same as those in Phase I.
Cocaine self-administration training in this stage was conducted in a separate cohort of rats (N=32). The methods of training were the same as those in Phase I, but the cues (light flash plus tone) appeared concurrently during cocaine infusion, and the cue light stayed on during the 20 second timeout period. As in Phase I, rats underwent 15 days of acquisition training.
After a stable rate of cocaine self-administration was achieved, the rats underwent a 9-day extinction procedure, which was similar to acquisition training except that pressing the active lever led to saline infusion instead of cocaine. During extinction sessions no cues were presented after an active lever-press. Rats were all reached the criterion for extinction (number of infusions ≤5, i.e. number of active lever responses <30 in the 1-hour session) in day 9 (last day) of extinction training.
During the reinstatement session, which occurred one day after the last extinction session, rats were presented the cues (flash+tone) at the beginning of the session and their lever-press responses recorded. There was no cocaine infusion during this reinstatement session, subject only received saline on a FR5 schedule. […]

norepinephrine transporter, sequence (P23975 whole entry, species assumed): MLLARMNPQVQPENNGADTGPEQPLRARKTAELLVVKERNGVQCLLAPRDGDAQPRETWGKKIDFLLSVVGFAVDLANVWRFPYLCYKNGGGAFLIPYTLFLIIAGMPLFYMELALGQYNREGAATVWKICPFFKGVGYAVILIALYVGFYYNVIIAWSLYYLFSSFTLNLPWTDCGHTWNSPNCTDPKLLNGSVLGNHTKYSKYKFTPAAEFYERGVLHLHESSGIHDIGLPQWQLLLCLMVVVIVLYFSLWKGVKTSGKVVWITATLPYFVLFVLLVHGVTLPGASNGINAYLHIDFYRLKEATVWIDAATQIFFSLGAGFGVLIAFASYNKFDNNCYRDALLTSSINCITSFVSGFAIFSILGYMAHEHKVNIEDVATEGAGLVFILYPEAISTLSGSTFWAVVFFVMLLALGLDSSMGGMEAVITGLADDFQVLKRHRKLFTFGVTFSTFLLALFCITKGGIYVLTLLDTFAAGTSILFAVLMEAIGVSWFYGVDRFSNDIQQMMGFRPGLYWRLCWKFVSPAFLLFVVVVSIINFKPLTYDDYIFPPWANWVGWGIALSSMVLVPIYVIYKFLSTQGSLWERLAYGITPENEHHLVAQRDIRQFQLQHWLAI

SMILES | cocaine self-administration [1] | cocaine self-administration [2] | off-target effects on monoamine oxidase [3] | off-target effects on the norepinephrine transporter [4] | ethanol self-administration [5] | off-target effects on NMDA receptors [6] | inhibition of cytochrome P450 1A2 [7] | ethanol consumption [5] | responding on the active lever (cocaine self-administration) ([8]; 3 mg/kg PO, 60 minutes prior to test, post hoc p<0.10) | responding on the active lever (cocaine self-administration) ([8]; 10 mg/kg PO, 1 hour prior to test, post hoc p<0.001) | cue-induced reinstatement of the self-administration response [9]
Cc1cccc(C#Cc2ccccc2)n1 [MPEP, 2-methyl-6-(2-phenylethynyl)pyridine] | decreased cocaine self-administration | decreased cocaine self-administration | off-target effects | off-target effects | decreased ethanol self-administration | off-target effects |  |  |  |  | 
Cc1nc(C#Cc2cccnc2)cs1 [MTEP, 3-[2-(2-methylthiazol-4-yl)ethynyl]pyridine] |  | decreased cocaine self-administration |  |  | decreased ethanol self-administration |  | potent inhibition | decreased ethanol consumption |  |  | 
COC(=O)N1CC[C@@H]2[C@H]1CCC[C@@]2(O)C#Cc1cccc(C)c1 [mavoglurant, (−)-(3aR,4S,7aR)-4-Hydroxy-4-m-tolylethynyl-octahydro-indole-1-carboxylic acid methyl ester] |  |  |  |  |  |  |  |  | tended to reduce responding on the active lever | significantly reduced responding; also recorded: significantly reduced cocaine self-administration | cue-induced reinstatement was suppressed; also recorded: completely prevented cue-induced reinstatement
